Assay results from US11230538B2, “Herbicides” (SYNGENTA PARTICIPATIONS AG, priority 2016, dated 2022).

Tests used:
Assay type in all cases: in vivo
[1] = system: Avena fatua (AVEFA); assay: B2 Post-emergence herbicidal activity; conditions: post-emergence application, rate 1000 g/ha, evaluated after 13 days
How it was run: (§1)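 Injury was rated 13 days after treatment from 0 (no damage) to 5 (total damage). The spray, applied 8 days after sowing, was an aqueous solution of the active ingredient from an acetone/water (50:50) formulation with 0.5% Tween 20. Plants were kept at 24/16° C, 14 h light, 65% humidity.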

[2] = system: Echinochloa crus-galli (ECHCG); assay: B1 Pre-emergence herbicidal activity; parameters: key to Pre-emergence herbicidal activity, ECHCG (damage score 0-5): 5=total damage to plant; 0=no damage to plant; conditions: pre-emergence application, rate 1000 g/ha, evaluated after 13 days
How it was run: (§2)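 Damage was rated 13 days after treatment, from 0 for none to 5 for total. The spray, in acetone/water 50:50 with 0.5% Tween 20, was applied pre-emergence, one day after seeds were sown in soil. Plants grew under glasshouse control at 24/16 °C, 14 h light, 65% humidity.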

[3] = system: Alopecurus myosuroides (ALOMY); assay: B1 Pre-emergence herbicidal activity; parameters: key: 5=total damage to plant; 0=no damage to plant; conditions: pre-emergence application, rate 1000 g/ha, evaluated after 13 days
How it was run: as §2

[4] = system: Triticum aestivium (TRZAW); assay: B1 Pre-emergence herbicidal activity; parameters: key: 5=total damage to plant; 0=no damage to plant; conditions: pre-emergence application, rate 1000 g/ha, evaluated after 13 days
How it was run: as §2

[5] = system: Avena fatua (AVEFA); assay: B1 Pre-emergence herbicidal activity; parameters: key: 5=total damage to plant; 0=no damage to plant; conditions: pre-emergence application, rate 1000 g/ha, evaluated after 13 days
How it was run: as §2

[6] = system: Setaria fabenr (SETFA); assay: B1 Pre-emergence herbicidal activity; parameters: key to Pre-emergence herbicidal activity, SETFA (damage score 0-5): 5=total damage to plant; 0=no damage to plant; conditions: pre-emergence application, rate 1000 g/ha, evaluated after 13 days
How it was run: as §2

[7] = system: Lolium perenne (LOLPE); assay: B1 Pre-emergence herbicidal activity; parameters: key to Pre-emergence herbicidal activity, LOLPE (damage score 0-5): 5=total damage to plant; 0=no damage to plant; conditions: pre-emergence application, rate 1000 g/ha, evaluated after 13 days
How it was run: as §2

[8] = system: Alopecurus myosuroides (ALOMY); assay: B2 Post-emergence herbicidal activity; parameters: key: 5=total damage to plant; 0=no damage to plant; conditions: post-emergence application, rate 1000 g/ha, evaluated after 13 days
How it was run: as §1

[9] = system: Triticum aestivium (TRZAW); assay: B2 Post-emergence herbicidal activity; parameters: key: 5=total damage to plant; 0=no damage to plant; conditions: post-emergence application, rate 1000 g/ha, evaluated after 13 days
How it was run: as §1

[10] = system: Setaria fabenri (SETFA); assay: B2 Post-emergence herbicidal activity; parameters: key: 5=total damage to plant; 0=no damage to plant; conditions: post-emergence application, rate 1000 g/ha, evaluated after 13 days
How it was run: as §1

[11] = system: Lolium perenne (LOLPE); assay: B2 Post-emergence herbicidal activity; conditions: post-emergence application, rate 1000 g/ha, evaluated after 13 days
How it was run: as §1

[12] = system: Echinochloa crus-galli (ECHCG); assay: B2 Post-emergence herbicidal activity; parameters: key to Post-emergence herbicidal activity, ECHCG (damage score 0-5): 5=total damage to plant; 0=no damage to plant; conditions: post-emergence application, rate 1000 g/ha, evaluated after 13 days
How it was run: as §1

SMILES	Post-emergence herbicidal activity, AVEFA (damage score 0-5) [1]	Pre-emergence herbicidal activity, ECHCG (damage score 0-5) [2]	Pre-emergence herbicidal activity, ALOMY (damage score 0-5) [3]	Pre-emergence herbicidal activity, TRAZW (damage score 0-5) [4]	Pre-emergence herbicidal activity, AVEFA (damage score 0-5) [5]	Pre-emergence herbicidal activity, SETFA (damage score 0-5) [6]	Pre-emergence herbicidal activity, LOLPE (damage score 0-5) [7]	Post-emergence herbicidal activity, ALOMY (damage score 0-5) [8]	Post-emergence herbicidal activity, TRAZW (damage score 0-5) [9]	Post-emergence herbicidal activity, SETFA (damage score 0-5) [10]	Post-emergence herbicidal activity, LOLPE (damage score 0-5) [11]	Post-emergence herbicidal activity, ECHCG (damage score 0-5) [12]
O=C1CCC(=O)N1c1ccc(-c2cncnc2)nc1C(F)(F)F [Compound C110]	3	4	0	0	3	4	1	0	1	5	2	5
O=C(Nc1ccc(-c2cncc(F)c2)nc1C(F)(F)F)c1cc(F)c(F)cc1F [Compound C33]	2	1	0	0	1	2	1	0	0	3	1	2
O=C(c1ccccc1)N(CC1CC1)c1ccc(-c2cncc(F)c2)nc1C(F)(F)F [Compound C103]	2	0	0	0	0	1	0	0	0	2	1	1
O=C(Nc1ccc(-c2cncc(F)c2)nc1C(F)(F)F)C(Cl)Cl [Compound C26]	4	5	0	0	2	5	1	0	1	5	4	5
CCC(=O)Nc1ccc(-c2cncc(F)c2)nc1C(F)(F)F [Compound C13]	4	4	1	0	2	5	3	1	0	5	4	5
CC(C)C(=O)N(CC#N)c1ccc(-c2cncc(F)c2)nc1C(F)(F)F [Compound C58]	2	3	0	0	0	5	0	0	0	5	1	4
CCC(=O)N(C(=O)CC)c1ccc(-c2cncc(F)c2)nc1C(F)(F)F [Compound C44]	3	5	0	0	2	4	1	1	0	5	3	5
O=C(Nc1ccc(-c2cncc(F)c2)nc1C(F)(F)F)C(Cl)(Cl)Cl [Compound C29]	4	5	0	0	4	5	1	0	0	5	3	5
CC(C)C(=O)Nc1ccc(-c2cncc(Cl)c2)nc1C(F)(F)F [Compound C12]	3	2	0	0	0	4	1	1	0	5	2	5
O=C(Nc1ccc(-c2cncc(F)c2)nc1C(F)(F)F)c1c(F)cccc1F [Compound C31]	3	4	1	0	2	5	0	0	0	5	3	5
